ChEMBL document CHEMBL1201862, “PubChem BioAssay data set” (2004)
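Briefly, cells in 96-well plates were exposed to five compound concentrations for 48 h, and endpoints were estimated by linear interpolation. GI50: concentration for 50% inhibition of growth.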 Active and inactive are the calls of the source. Rule as the data show it: active = GI50 up to about 1.1 µM and inactive = higher.

Legend:
Experiment in all cases: growth of human tumour cells (NCI), 48 h
EKVX = tested on: EKVX
U-251 = tested on: U-251
SK-MEL-28 = tested on: SK-MEL-28
SN12C = tested on: SN12C
KM12 = tested on: KM12
IGROV-1 = tested on: IGROV-1
SK-MEL-2 = tested on: SK-MEL-2
HOP-62 = tested on: HOP-62
K562 = tested on: K562
MOLT-4 = tested on: MOLT-4
SF-295 = tested on: SF-295
SK-OV-3 = tested on: SK-OV-3
M14 = tested on: M14
Malme-3M = tested on: Malme-3M
OVCAR-5 = tested on: OVCAR-5

Measured: GI50

O=C(NCC(=O)N1CCOC1=O)OCc1ccccc1
inactive: EKVX > 100 µM | U-251 > 100 µM | SK-MEL-28 > 100 µM | SN12C > 100 µM | KM12 > 100 µM | IGROV-1 > 100 µM | SK-MEL-2 > 100 µM | HOP-62 > 100 µM | K562 > 100 µM | MOLT-4 > 100 µM | SF-295 > 100 µM | SK-OV-3 > 100 µM | M14 > 100 µM

CC(=O)OC1CCn2nnc(CO[Si](C)(C)C(C)(C)C)c21 (centres undefined)
inactive: EKVX > 100 µM | U-251 > 100 µM | SK-MEL-28 > 100 µM | Malme-3M > 100 µM | OVCAR-5 > 100 µM | SN12C > 100 µM | KM12 > 100 µM | IGROV-1 > 100 µM | SK-MEL-2 > 100 µM | K562 > 100 µM | MOLT-4 > 100 µM | SF-295 > 100 µM | SK-OV-3 > 100 µM | M14 > 100 µM

OC1=CN=C(c2ccccc2)Oc2ccccc21
inactive: EKVX > 100 µM | U-251 > 100 µM | SK-MEL-28 > 100 µM | Malme-3M > 100 µM | SN12C > 100 µM | KM12 50.9 µM | IGROV-1 > 100 µM | SK-MEL-2 > 100 µM | HOP-62 68.1 µM | K562 > 100 µM | MOLT-4 > 100 µM | SF-295 32 µM | SK-OV-3 > 100 µM | M14 > 100 µM

Cc1cc(N(CCC#N)S(=O)(=O)c2ccccc2)ccc1/C=C1\N=C(c2ccc(Cl)cc2)OC1=O
inactive: EKVX > 100 µM | U-251 54 µM | SK-MEL-28 > 100 µM | Malme-3M > 100 µM | OVCAR-5 > 100 µM | SN12C > 100 µM | KM12 > 100 µM | IGROV-1 > 100 µM | SK-MEL-2 > 100 µM | K562 > 100 µM | MOLT-4 > 100 µM | SF-295 > 100 µM | M14 > 100 µM

CN(O)C(=O)Cc1ccccc1
inactive: U-251 > 100 µM | SK-MEL-28 > 100 µM | Malme-3M > 100 µM | OVCAR-5 > 100 µM | SN12C > 100 µM | KM12 > 100 µM | IGROV-1 > 100 µM | HOP-62 > 100 µM | K562 > 100 µM | MOLT-4 > 100 µM | SF-295 > 100 µM | SK-OV-3 > 100 µM | M14 > 100 µM

COc1ccc2c(c1)N1CCc3cc(OC)c(OC)cc3C1C2 (centres undefined)
inactive: EKVX > 100 µM | U-251 > 100 µM | SK-MEL-28 89.1 µM | Malme-3M 30.5 µM | SN12C 51.9 µM | KM12 89.1 µM | IGROV-1 28.4 µM | SK-MEL-2 87.5 µM | HOP-62 > 100 µM | K562 32.3 µM | MOLT-4 26 µM | SF-295 88.7 µM | SK-OV-3 > 100 µM

Cc1ccc(NC(=O)CSc2nnc(-c3ccc(/N=C\c4ccc(Cl)cc4)cc3)o2)cc1
inactive: EKVX > 100 µM | U-251 > 100 µM | SK-MEL-28 > 100 µM | Malme-3M > 100 µM | SN12C > 100 µM | KM12 > 100 µM | SK-MEL-2 > 100 µM | HOP-62 > 100 µM | K562 > 100 µM | MOLT-4 > 100 µM | SF-295 > 100 µM | SK-OV-3 > 100 µM | M14 > 100 µM

C=C=C(CC)C(C(=O)OC)N(CC)CC (centres undefined)
inactive: EKVX > 100 µM | U-251 > 100 µM | SK-MEL-28 > 100 µM | Malme-3M > 100 µM | SN12C > 100 µM | KM12 > 100 µM | IGROV-1 > 100 µM | HOP-62 > 100 µM | K562 > 100 µM | MOLT-4 > 100 µM | SF-295 > 100 µM | SK-OV-3 > 100 µM | M14 > 100 µM

O=C1OC(c2ccccc2)=N/C1=C\c1ccc2ccccc2c1
inactive: EKVX > 100 µM | U-251 > 100 µM | SK-MEL-28 > 100 µM | Malme-3M > 100 µM | OVCAR-5 > 100 µM | SN12C > 100 µM | KM12 > 100 µM | IGROV-1 > 100 µM | SK-MEL-2 > 100 µM | K562 > 100 µM | MOLT-4 > 100 µM | SK-OV-3 > 100 µM | M14 > 100 µM

COC(=O)C(C(=O)C(=O)Nc1ccccc1OC)c1csc(-n2nc(-c3ccccc3)cc2-c2ccccc2)n1 (centres undefined)
inactive: EKVX 43.1 µM | U-251 > 100 µM | Malme-3M > 100 µM | OVCAR-5 > 100 µM | SN12C > 100 µM | KM12 95.9 µM | IGROV-1 > 100 µM | HOP-62 > 100 µM | K562 > 100 µM | MOLT-4 65.2 µM | SK-OV-3 > 100 µM | M14 > 100 µM

OC(CCl)CN1CC[N+]2(CC1)CC[N+]1(CCN(CC(O)CCl)CC1)CC2 (centres undefined) [PROSPIDIUM CHLORIDE]
inactive: EKVX > 50 µM | U-251 > 50 µM | SK-MEL-28 > 50 µM | Malme-3M > 50 µM | SN12C > 50 µM | KM12 > 50 µM | IGROV-1 > 50 µM | SK-MEL-2 > 50 µM | K562 > 50 µM | MOLT-4 > 50 µM | SF-295 > 50 µM | SK-OV-3 > 50 µM | M14 > 50 µM
